We go through four compounds from article PMC8880313, “Discovery of Novel Andrographolide Derivatives as Antiviral Inhibitors against Human Enterovirus A71” (Pharmaceuticals, 2022).

Series [1] deals with RD cells. Kind of series: Cell viability assay (alamarBlue). The class given is cell-based, human. The conditions noted are these: 10 µM, 12 h. The method, then: (§1) Firstly, we performed cell viability assay to evaluate the cytotoxicity profile of the 19 hits. Cells seeded overnight were treated with the hit compounds at 10 µM. […] Anti-EV-A71 activity of AGP-253 had been illustrated and discussed previously. We were particularly interested in ZAF-46 and ZAF-47 as they belonged to the same series bearing novel 14-quinolinoxy and 17-hydro-8,9-olefin modifications (Figure 2b) that could potentially open up new targets for EV-A71 therapeutics. Additional cell viability assays were performed for ZAF-46 and ZAF-47 at different concentrations to identify the low cytotoxic concentrations for downstream post-treatment assays. For post-treatment assays, cells seeded overnight were infected with EV-A71 and subsequently treated with ZAF-46 and ZAF-47 at different concentrations. […] Treatment with ZAF-46 led to 1.4 log reduction at 10 µM and 2.4 log reduction at 20 µM (Figure 2c) while treatment with ZAF-47 led to 0.8 log reduction at 5 µM, 1.1 log reduction at 10 µM and 2.1 log reduction at 20 µM (Figure 2d). CC50 and IC50 for both compounds were determined and used to derive their SI (Table 2). ZAF-47 was selected for further downstream analysis due to its higher SI value which indicate higher pharmacological value for clinical use.
(§2) To determine the cytotoxicity profiles of the hits, cell viability assay was performed. Seeded 96-well plates, with 2 × 10^4 RD cells per well, were incubated overnight at 37 °C with 5% CO2. Different concentrations of drug hits, diluted by reduced serum DMEM, were used to treat the seeded cells for 12 h at 37 °C with 5% CO2. Reduced serum DMEM, was employed as the negative control and 0.1% DMSO as the vehicle control for this step. Subsequently, the supernatant was replaced with alamarBlue^TM Cell Viability Reagent (Thermo Fisher Scientific, Waltham, MA, USA) (100 µL), diluted 10-fold in reduced serum DMEM, and incubated for 3 h at 37 °C with 5% CO2. Fluorescence intensity in each well was measured at 570 nm excitation wavelength and 600 nm emission wavelength in each well by the Infinite^TM 200 series microplate reader (Tecan, Männedorf, Switzerland) and normaliszd with the negative control to determine the relative cell viability.
(The colour change of resazurin is a common sign of viable cells or microbes.)

Series [2] concerns EV-A71. The series is described as follows: Immunofluorescence-based preliminary screen of EV-A71-infected RD cells. The class given is cell-based, human enterovirus A71 (EV-A71) strain 41. The conditions noted are these: EV-A71-infected RD cells (MOI = 1). An excerpt: The screening assay was built using an immunofluorescence approach that was previously established and validated, with DAPI-stained nuclei accounting for total cell count and FITC-stained EV-A71 accounting for infected cell count upon EV-A71 infection and compound treatment. Both cell counts would then be used to calculate percentage infection and percentage inhibition to identify for hits. Before the screening platform can be employed to screen for potential antivirals, its robustness has to be appraised. In this study, Z-factor was calculated to assess the robustness of the screening platform. Firstly, seeded RD cells were either infected with EV-A71 (Multiplicity of Infection of 1) or mock-infected with media. The cells were then fixed, stained and imaged 12 h post-infection (hpi). The IFA images were analyzed with the Cell Profiler software to determine the infection rate of each well. Between the virus-infected and mock-infected wells, a clear distinction in infection rates could be observed (Figure 1a). […] In this case, the Z-factor, measured at 0.818, was indicative of a highly robust screening platform for high-throughput screening. The constructed screening platform was then employed to screen the compound library made up of 344 chemically synthesized novel compounds analogous to andrographolide. The compounds were screened at 10 µM with IFA images taken and analyzed to identify for hits. Treatment with 0.1% DMSO was used as vehicle control.
Seeded 96-well plates (Corning Inc., Corning, NY, USA), with 2 × 10^4 RD cells per well, were incubated overnight at 37 °C with 5% CO2. The seeded cells were then infected with EV-A71 (50 µL per well, MOI = 1) for 1 h at 37 °C with 5% CO2. The EV-A71-infected cells were then treated with the compound library at a final concentration of 10 µM for 12 h at 37 °C with 5% CO2. Treatment with 0.1% DMSO was used as vehicle control. Following treatment, cells were fixed with 100 µL of methanol (Sinopharm Chemical, Shanghai, China) for 15 min at −20°C and rinsed with 100 µL of 1x PBS for three times before performing indirect immunofluorescence assay (IFA). Anti-EV-A71 VP2 1° antibodies, MAB979 (Merck Millipore, Burlington, VT, USA), diluted 500-fold in PBS, was incubated with the fixed cells for 1 h at 37 °C. Cells were then rinsed thrice with PBS and incubated with anti-mouse FITC 2° antibodies (Merck Millipore), diluted 200-fold in PBS, for 1 h at 37 °C. After which, the cells were rinsed thrice with PBS before staining with DAPI (Sigma-Aldrich) at room temperature for 15 min. Cells were then rinsed thrice and preserved in 100 µL of PBS before imaging with the Operetta High-Content Imaging System and the Harmony High-Content Imaging and Analysis Software (Perkin Elmer, Waltham, MA, USA). Images of stained cells were captured with the DAPI and FITC fluorescence filters, from a pre-determined central position of each well and processed with the Cell Profiler software. […] The percentage infection (PI) for each well was calculated using the formula: Infected cell count/Total cell count × 100%. The percentage inhibition for each well was calculated using the formula PI0− PI/PI0 × 100% where PI0 refers to the percentage infection of wells treated with the vehicle control while PI refers to the percentage infection of wells treated with the compounds.

Series [3] has as its system replication-competent EV-A71 RNA replicon. The series is described as follows: Nano-luciferase reporter assay, replication-competent replicon. To be noted: RD cells, 12 h; ZAF-47 different concentrations, GuHCl 1 mM. The format is cell-based, human enterovirus A71 (EV-A71). Here is the method: To identify specifically which of these two intrinsically linked processes that ZAF-47 inhibits, we transfected RD cells with EV-A71 RNA replicons that were either replication-competent or replication-defective and subsequently treated them with different concentrations of ZAF-47 for 12 h before detecting for luminescence. Both forms of replicons were previously established and validated. The replication-competent replicon is capable of self-replicating as it contains an intact 3D region that encodes for 3D polymerase (3D^pol) responsible for RNA replication (Figure 4c). […] In contrast, the replication-defective replicon contains a 3D region with 159 nucleotide deletion which would produce a non-functional 3D protein and impair RNA replication (Figure 4c). As such, cells containing the replication-defective replicon express luciferase upon IRES translation of the original replicons only. The transfected cells were also treated with negative control, DMSO and positive controls, guanidine hydrochloride (GuHCl) and cycloheximide (CHX), a RNA replication-specific inhibitor [50] and a general translation inhibitor [51] respectively.
Seeded 96-well plates, with 2 × 10^4 RD cells per well, were incubated overnight at 37 °C with 5% CO2. […]
On the technique in general: In a reporter assay the amount or activity of a reporter protein is the signal.

Series [4] can be described thus: Cell viability assay (alamarBlue). The class given is cell-based, human. To be noted: human, RD cells. Here is the method:
as §1, §2

Series [5] deals with EV-A71. Kind of series: Post-treatment assay with viral plaque assay. The class given is cell-based, human enterovirus A71 (EV-A71) strain 41. To be noted: for reduction in viral titre: post-treatment, 12 hpi. The method, then: as §1
To determine the inhibitory profiles of the hits, post treatment assay was performed. Seeded 24-well plates, with 1.5 × 10^5 RD cells per well, were incubated overnight at 37 °C with 5% CO2. The seeded cells were infected with EV-A71 (100 µL per well, MOI = 1) for 1 h at 37 °C with 5% CO2 and then rinsed with 1 mL of PBS twice. Different concentrations of the hits were used to treat the infected cells for 12 h at 37 °C with 5% CO2. At 12 hpi, the plates were frozen and thawed for 2 cycles (−80°C; 37 °C) before collection of supernatants to measure the viral titres via viral plaque assay.
Measurement of the viral titres from collected supernatants was derived from viral plaque assays. To do this, 24-well plates, seeded with 2.4 × 10^5 RD cells per well, were used in plaque assays for EV-A71, EV-D68, Echo7, CV-A6, CV-A16 and CV-A24 while 24-well plates, seeded with 1.2 × 10^5 Vero cells per well, were used in plaque assays for CV-B5. Seeded cells were incubated overnight at 37 °C with 5% CO2. Viral supernatants were diluted from 10^−1 to 10^−7 in reduced serum DMEM before infecting the cells with a volume of 100 µL for 1 h at 37 °C with 5% CO2 (33 °C instead for EV-D68). Cells were rinsed twice with PBS before overlaying with 1 mL of reduced serum DMEM containing 0.5% agarose (Vivantis, Shah Alam, Malaysia). Cells infected with Echo7 supernatants were incubated for 2 days, cells infected with CV-A24 and CV-B5 supernatants were incubated for 3 days and cells infected with EV-A71, CV-A6, CV-A16 and EV-D68 supernatants were incubated for 4 days for the formation of plaques. Subsequently, the cells were fixed and stained overnight with 4% paraformaldehyde and 1% crystal violet (Sigma-Aldrich). Subsequent formation of viral plaques was counted manually to quantify the viral titre in PFU/mL

On the set-up of series [6]: method as in PMID 34816382. To be noted: cited from earlier work.
On the set-up of series [7]: method as in PMID 34816382. To be noted: cited from earlier work. This is another data set of the same source.

Consider `CC1(CO)C(O)CCC2(C)C(CC=C3C(=O)OCC3Oc3ccc([N+](=O)[O-])cc3Cl)C3(CCC12)CO3` (stereo not drawn) [AGP-253, 14S-(2′-Chloro-4′-Nitrophenoxy)-8R/S, 17-Epoxy Andrographolide], for which the cytotoxicity result in series [1] is recorded as “low cytotoxicity”. In addition, the “Inhibition Rate (%)” value in series [2] (10 µM, 12 h) amounted to 98.91%.
Turning to `Cl.N=C(N)N` [GuHCl, guanidine hydrochloride, reference compound], the “luminescence, replication-competent replicon” value in series [3] is reported as “significant decrease in luminescence”.
Turning to `CC(=O)OC[C@]1(C)[C@H](O)CC[C@@]2(C)C(C/C=C3/C(=O)OC[C@@H]3Oc3cccc4cccnc34)=C(C)CC[C@H]12` [ZAF-46, (14β)-(8′-Quinolinoxy)-9-dehydro-17-hydro-19-acetoxy-andrographolide], in series [4], the CC50 (as a rule, the concentration at which the toxic effect on the cells reaches its halfway point) at 12 h is 29.9 µM. Moreover, the cytotoxicity entry in series [1] is listed as “low cytotoxicity”. The entries for the “reduction in viral titre” value in series [5] (10 µM) and in series [5] (20 µM) were 1.4 log and 2.4 log, respectively. For the same compound, the IC50 (in general, the concentration that inhibits the measured activity by half) in series [5] (Enterovirus A, EVA71, EV-A71-infected RD cells, MOI = 1, 12 h treatment, viral plaque assay) came to 4.44 µM. The “Selectivity Index (SI)” value in series [5] (SI = CC50/IC50) is reported as 6.73. In series [2] (10 µM, 12 h, 0.1% DMSO wells 998), the “Nuclei Count” value was determined as 1037. The inhibition (commonly the relative decrease from the control value, in per cent) at 10 µM in series [2] (Enterovirus A, EVA71, 12 h, read-out: Inhibition Rate (%)) was 96%.
With `C=C1CC[C@@H]2[C@](C)(CO)[C@H](O)CC[C@@]2(C)[C@@H]1C/C=C1/C(=O)OC[C@H]1O` [andrographolide], the water solubility entry in series [6] is “low water solubility”. The bioavailability entry in series [7] was “poor bioavailability”.
